Test results from patent US10562909B2, “Fused quadracyclic compounds, compositions and uses thereof” (Tabomedex Biosciences, LLC, priority 2016, dated 2020).

Biological target: MAPKAPK2 (Homo sapiens, UniProt P49137)
Experiment: MK2 Enzymatic Assay
Assay type: biochemical
Conditions: 0.5 nM MAPKAPK2, 3 μM ATP, 2 μM Ser/Thr4 peptide, 23° C., values given as concentration bins
Method: Briefly, 5 μL of 2× (4 μM) 100% phosphorylation peptide was delivered into the control wells of a 384-well assay plate. 5 μL of 2× (1 nM) MAPKAPK2 and 2× peptide (4 μM) mixture in assay buffer was dispensed to remaining columns of assay plate using Eppendorf electronic multiple channel pipette. The assay plate was incubated for 20 minutes. 5 μL of 2× ATP (6 μM) in assay buffer was dispensed to each well and then the assay plate was lightly centrifuged. The assay plate was incubated for an additional 120 minutes.
5 μL of development reagent A was dispensed to all wells using Eppendorf electronic multiple channel pipette. After incubating the development reaction for 120 min, plates were read on a Perkin Elmer Envision instrument.
Percent phosphorylation was calculated using the following formula:
[formula] Where • C100%=Average Coumarin emission signal of the 100% Phos. Control • C0%=Average Coumarin emission signal of the 0% Phos. Control • F100%=Average Fluorescein emission signal of the 100% Phos. Control • F0%=Average Flurescein emission signal of the 0% Phos. Control

Sequence of MAPKAPK2 (P49137 whole entry, species assumed): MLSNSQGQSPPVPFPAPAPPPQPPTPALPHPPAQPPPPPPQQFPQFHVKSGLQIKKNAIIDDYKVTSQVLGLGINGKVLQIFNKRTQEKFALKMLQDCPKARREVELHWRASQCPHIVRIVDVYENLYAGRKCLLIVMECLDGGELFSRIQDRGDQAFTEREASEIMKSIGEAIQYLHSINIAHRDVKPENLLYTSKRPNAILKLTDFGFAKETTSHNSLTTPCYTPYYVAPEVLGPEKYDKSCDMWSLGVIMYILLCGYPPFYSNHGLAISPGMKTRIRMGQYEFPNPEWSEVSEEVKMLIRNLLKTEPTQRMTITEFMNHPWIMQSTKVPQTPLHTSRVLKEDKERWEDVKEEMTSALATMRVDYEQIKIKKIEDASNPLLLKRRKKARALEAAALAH

| IC50 [nM] | SMILES |
| --- | --- |
| < 50 | C[C@H](CO)NC[C@H]1CCN(c2ccc3c(c2)Cn2cc(-c4ccc(F)cc4)cc2-c2ncnn2-3)C1 [Compound 420, (R)-2-((((R)-1-(12-(4-fluorophenyl)-9H-benzo[e]pyrrolo[1,2-a][1,2,4]triazolo[5,1-c][1,4]diazepin-7-yl)pyrrolidin-3-yl)methyl)amino)propan-1-ol] |
| 200 to 1000 | Fc1ccc(-c2cc3n(c2)Cc2cc(N4CC[C@@H](CNCC(F)F)C4)ccc2-n2ccnc2-3)cc1 [Compound 465, (S)-2,2-difluoro-N-((1-(12-(4-fluorophenyl)-9H-benzo[e]imidazo[2,1-c]pyrrolo[1,2-a][1,4]diazepin-7-yl)pyrrolidin-3-yl)methyl)ethanamine] |
| < 50 | CN(C)C[C@H]1CN(c2ccc3c(n2)Cn2cc(-c4ccc(C#N)cc4)cc2-c2nccn2-3)C[C@H]1O [Compound 298, 4-(7-((3S,4S)-3-((dimethylamino)methyl)-4-hydroxypyrrolidin-1-yl)-9H-imidazo[2,1-c]pyrido[3,2-e]pyrrolo[1,2-a][1,4]diazepin-12-yl)benzonitrile] |
| < 50 | CN(C)C[C@H]1CN(c2ccc3c(c2)Cn2cc(-c4ccc(F)cc4)cc2-c2nccn2-3)C[C@@H]1O [Compound 356, (3R,4S)-4-((dimethylamino)methyl)-1-(12-(4-fluorophenyl)-9H-benzo[e]imidazo[2,1-c]pyrrolo[1,2-a][1,4]diazepin-7-yl)pyrrolidin-3-ol] |
| < 50 | CC(C)N1CC2(CCN(c3ccc4c(c3)Cn3cc(-c5ccc(F)cc5)cc3-c3nccn3-4)C2)C1 [Compound 368, 12-(4-fluorophenyl)-7-(2-isopropyl-2,6-diazaspiro[3.4]octan-6-yl)-9H-benzo[e]imidazo[2,1-c]pyrrolo[1,2-a][1,4]diazepine] |
| < 50 | C[C@@H](CO)N1CC2(CCN(c3ccc4c(c3)Cn3cc(-c5ccc(F)cc5)cc3-c3nccn3-4)C2)C1 [Compound 371, (S)-2-(6-(12-(4-fluorophenyl)-9H-benzo[e]imidazo[2,1-c]pyrrolo[1,2-a][1,4]diazepin-7-yl)-2,6-diazaspiro[3.4]octan-2-yl)propan-1-ol] |
| 50 to 100 | Cc1nnc2n1-c1ccc(N3CC[C@H](N)C3)cc1Cn1cc(-c3ccc(C#N)cc3)cc1-2 [Compound 230, 4-(7-((S)-3-aminopyrrolidin-1-yl)-3-methyl-9H-benzo[e]pyrrolo[1,2-a][1,2,4]triazolo[3,4-c][1,4]diazepin-12-yl)benzonitrile] |
| < 50 | CN(C)C[C@H]1CN(c2ccc3c(c2)Cn2cc(-c4ccc(C#N)cc4)cc2-c2nncn2-3)C[C@H]1O [Compound 81, 4-(7-((3S,4S)-3-((dimethylamino)methyl)-4-hydroxypyrrolidin-1-yl)-9H-benzo[e]pyrrolo[1,2-a][1,2,4]triazolo[3,4-c][1,4]diazepin-12-yl)benzonitrile] |
| < 50 | CN(C)C[C@@H]1CN(c2ccc3c(c2)Cn2cc(-c4ccc(F)cc4)cc2-c2ncnn2-3)C[C@@H]1O [Compound 416, (3R,4R)-4-((dimethylamino)methyl)-1-(12-(4-fluorophenyl)-9H-benzo[e]pyrrolo[1,2-a][1,2,4]triazolo[5,1-c][1,4]diazepin-7-yl)pyrrolidin-3-ol] |
| < 50 | CNC[C@@H]1CN(c2ccc3c(c2)Cn2cc(-c4ccc(F)cc4)cc2-c2nccn2-3)C[C@@H]1O [Compound 483, (3R,4R)-1-(12-(4-fluorophenyl)-9H-benzo[e]imidazo[2,1-c]pyrrolo[1,2-a][1,4]diazepin-7-yl)-4-((methylamino)methyl)pyrrolidin-3-ol] |
| < 50 | N#Cc1ccc(-c2cc3n(c2)Cc2nc(N4CC[C@@H](CN5CCC(O)CC5)C4)ccc2-n2ccnc2-3)cc1 [Compound 308, (S)-4-(7-(3-((4-hydroxypiperidin-1-yl)methyl)pyrrolidin-1-yl)-9H-imidazo[2,1-c]pyrido[3,2-e]pyrrolo[1,2-a][1,4]diazepin-12-yl)benzonitrile] |
| < 50 | CNCC1CCN(c2ccc3c(c2)Cn2cc(-c4ccc(F)cc4)cc2-c2nnnn2-3)C1 (stereo not drawn) [Compound 388, 1-(1-(12-(4-fluorophenyl)-9H-benzo[e]pyrrolo[1,2-a]tetrazolo[5,1-c][1,4]diazepin-7-yl)pyrrolidin-3-yl)-N-methylmethanamine] |
| 50 to 100 | CN(C)C[C@H]1CCN(c2ccc3c(c2)Cn2cc(-c4ccc(F)cc4)cc2-c2nnnn2-3)C1 [Compound 394, (R)-1-(1-(12-(4-fluorophenyl)-9H-benzo[e]pyrrolo[1,2-a]tetrazolo[5,1-c][1,4]diazepin-7-yl)pyrrolidin-3-yl)-N,N-dimethylmethanamine] |
| < 50 | CNCCC1CCN(c2ccc3c(c2)Cn2cc(-c4ccc(F)cc4)cc2-c2nccn2-3)C1 (stereo not drawn) [Compound 487, 2-(1-(12-(4-fluorophenyl)-9H-benzo[e]imidazo[2,1-c]pyrrolo[1,2-a][1,4]diazepin-7-yl)pyrrolidin-3-yl)-N-methylethanamine] |
| < 50 | CN(C)[C@@H]1CN(c2ccc3c(n2)Cn2cc(-c4ccc(F)cc4)cc2-c2nccn2-3)C[C@H]1O [Compound 431, (3R,4R)-4-(dimethylamino)-1-(12-(4-fluorophenyl)-9H-imidazo[2,1-c]pyrido[3,2-e]pyrrolo[1,2-a][1,4]diazepin-7-yl)pyrrolidin-3-ol] |
| < 50 | C[C@H](CO)NC[C@H]1CCN(c2ccc3c(c2)Cn2cc(-c4ccc(C#N)cc4)cc2-c2nccn2-3)C1 [Compound 136, 4-(7-((R)-3-((((R)-1-hydroxypropan-2-yl)amino)methyl)pyrrolidin-1-yl)-9H-benzo[e]imidazo[2,1-c]pyrrolo[1,2-a][1,4]diazepin-12-yl)benzonitrile] |
| < 50 | OC1CCN(C[C@@H]2CCN(c3ccc4c(c3)Cn3cc(-c5ccc(F)cc5)cc3-c3nccn3-4)C2)CC1 [Compound 361, (S)-1-((1-(12-(4-fluorophenyl)-9H-benzo[e]imidazo[2,1-c]pyrrolo[1,2-a][1,4]diazepin-7-yl)pyrrolidin-3-yl)methyl)piperidin-4-ol] |
| < 50 | N#Cc1ccc(-c2cc3n(c2)Cc2cc(N4CC[C@H](CN5CCC(O)CC5)C4)ccc2-n2cnnc2-3)cc1 [Compound 111, (R)-4-(7-(3-((4-hydroxypiperidin-1-yl)methyl)pyrrolidin-1-yl)-9H-benzo[e]pyrrolo[1,2-a] [1,2,4]triazolo[3,4-c][1,4]diazepin-12-yl)benzonitrile] |
| < 50 | N#Cc1ccc(-c2cc3n(c2)Cc2cc(N4CC[C@H]5NCC[C@@H]54)ccc2-n2nnnc2-3)cc1 (racemic) [Compound 232, 4-(7-(trans-hexahydropyrrolo[3,2-b]pyrrol-1(2H)-yl)-9H-benzo[e]pyrrolo[1,2-a]tetrazolo[5,1-c][1,4]diazepin-12-yl)benzonitrile] |
| 100 to 200 | C[C@H](CO)NC[C@H]1CCN(c2cc3c(cn2)-n2ccnc2-c2cc(-c4ccc(F)cc4)cn2C3)C1 [Compound 442, (R)-2-((((R)-1-(12-(4-fluorophenyl)-9H-imidazo[2,1-c]pyrido[3,4-e]pyrrolo[1,2-a][1,4]diazepin-7-yl)pyrrolidin-3-yl)methyl)amino)propan-1-ol] |
| 50 to 100 | CN(C)[C@H]1CCN(c2ccc3c(c2)Cn2cc(-c4ccc(F)cc4)cc2-c2ncnn2-3)C1 [Compound 427, (S)-1-(12-(4-fluorophenyl)-9H-benzo[e]pyrrolo[1,2-a][1,2,4]triazolo[5,1-c][1,4]diazepin-7-yl)-N,N-dimethylpyrrolidin-3-amine] |
| < 50 | CN(C)C[C@H]1CN(c2ccc3c(c2)Cn2cc(-c4ccc(C#N)cc4)cc2-c2nncn2-3)C[C@@H]1O [Compound 109, 4-(7-((3S,4R)-3-((dimethylamino)methyl)-4-hydroxypyrrolidin-1-yl)-9H-benzo[e]pyrrolo[1,2-a][1,2,4]triazolo[3,4-c][1,4]diazepin-12-yl)benzonitrile] |
| 50 to 100 | Fc1ccc(-c2cc3n(c2)Cc2cc(N4CC5(CCNC5)C4)ccc2-n2nnnc2-3)cc1 [Compound 403, 12-(4-fluorophenyl)-7-(2,6-diazaspiro[3.4]octan-2-yl)-9H-benzo[e]pyrrolo[1,2-a]tetrazolo[5,1-c][1,4]diazepine] |
| < 50 | Fc1ccc(-c2cc3n(c2)Cc2cc(N4CCC5(CNC5)C4)ccc2-n2ccnc2-3)cc1 [Compound 376, 12-(4-fluorophenyl)-7-(2,6-diazaspiro[3.4]octan-6-yl)-9H-benzo[e]imidazo[2,1-c]pyrrolo[1,2-a][1,4]diazepine] |
| 50 to 100 | CN(C)[C@@H]1CCN(c2ccc3c(c2)Cn2cc(-c4ccc(F)cc4)cc2-c2ncnn2-3)C1 [Compound 426, (R)-1-(12-(4-fluorophenyl)-9H-benzo[e]pyrrolo[1,2-a][1,2,4]triazolo[5,1-c][1,4]diazepin-7-yl)-N,N-dimethylpyrrolidin-3-amine] |
| < 50 | CN1CC2(CCN(c3ccc4c(c3)Cn3cc(-c5ccc(C#N)cc5)cc3-c3ncnn3-4)C2)C1 [Compound 253, 4-(7-(2-methyl-2,6-diazaspiro[3.4]octan-6-yl)-9H-benzo[e]pyrrolo[1,2-a][1,2,4]triazolo[5,1-c][1,4]diazepin-12-yl)benzonitrile] |
| < 50 | CN(C)[C@@H]1CN(c2ccc3c(c2)Cn2cc(-c4ccc(C#N)cc4)cc2-c2nccn2-3)C[C@H]1O [Compound 130, 4-(7-((3R,4R)-3-(dimethylamino)-4-hydroxypyrrolidin-1-yl)-9H-benzo[e]imidazo[2,1-c]pyrrolo[1,2-a][1,4]diazepin-12-yl)benzonitrile] |
